Data set [1] has as its system CC14-induced acute liver injury model mice. The data set can be described thus: CC14-induced acute liver injury model: ALT, AST in serum, SOD, GSH-Px, MDA in liver homogenate. It counts as in vivo, Kunming mice. The conditions noted are these: for GSH-Px / MDA / SOD: liver homogenate, Mean ± SD; for GSH-Px / MDA / SOD / ALT / AST: 3 mg/kg by weight of PQQ, gavage once a day for 7 days; for ALT / AST: serum, 24 h after CC14, Mean ± SD. The method, then:
Forty-eight male Kunming mice weighing 18-22 g were randomly divided into 4 groups: blank control group, CC14 model group, PQQ disodium salt group and PQQ betaine salt group, respectively, with 12 mice in each group.
On the 7th day after gavage for 1 h, the mice in CC14 model group, PQQ disodium salt group and PQQ betaine salt group were injected intraperitoneally with 0.25% CC14 peanut oil (10 mL/kg) once, resulting in acute liver injury models; while mice in the blank control group were injected intraperitoneally with peanut oil (10 mL/kg) once. Animals were sacrificed after orbital blood collection for 24 h. 0.5-1 mL blood was collected from the mouse orbit, serum was separated by static centrifugation, and ALT and AST levels in serum were measured by biochemical kits. Animals were sacrificed and livers were removed for preparing liver homogenate. Superoxide dismutase (SOD), glutathione peroxidase (GSH-Px) activity and malondialdehyde (MDA) content in liver homogenates were determined by biochemical kits.

In data set [2] the test system is scopolamine-induced memory disordered model mice. As to the kind of experiment: Morris water maze spatial probe test in scopolamine-induced memory disordered mice. It counts as in vivo, Kunming mice. To be noted: for Latent period of crossing the original platform / Number of time of crossing platform: fifth day, Mean ± SD. The method, then:
(§1) Fifty Kunming mice, weighing 18-22 g, were randomly divided into five groups: blank control group, model group, low-dose PQQ betaine salt group (1.5 mg/kg), high-dose PQQ betaine salt group (3 mg/kg) and positive control group (donepezil, 3 mg/kg), respectively, 10 mice in each group. Wherein the PQQ betaine salt used is a crystalline Form A of pyrroloquinoline quinone betaine salt prepared according to the method of example 1.
(§2) The blank control group and the model group were administered with distilled water by gavage, the low-dose PQQ betaine salt group, the high-dose group and positive control group were administered with drugs by gavage respectively, once a day. Learning and memory training was carried out on the fifth day of administration and for 5 days in total; the model group, the low-dose PQQ betaine salt group, the high-dose group and the positive control group were intraperitoneally injected with 2 mg/kg of scopolamine 20 minutes earlier before training to obtain memory disordered models, while the blank control group was injected with a corresponding volume of saline. Morris water maze experiment were carried out for 5 days in total, wherein, a place navigation test was carried out in the first 4 days in order to observe and record the time required for the experimental animals to seek and climb onto the platform, in order to test the learning ability of mice. On the fifth day, a spatial probe test was carried out, during the test, the platform was removed, the time (the latent period) when crossing the original platform position for the first time was recorded as well as the number of time of traversing the original platform position for the animal, in order to test the spatial memory capacity of the animal. The latent period and the number of time of traversing platforms were used as evaluation indexes to detect the improvement of learning and memory in dementia model mice.

A short description of data set [3]: Standing at room temperature (hygroscopicity observation). It counts as physicochemical. To be noted: room temperature (25° C., about 50% humidity), a period of time.
A short description of data set [4]: High temperature stability of the crystalline form (XRPD). The conditions noted are these: oven at 60° C., 5 days and 10 days.
Description: An appropriate amount of sample of the crystalline Form A of Pyrroloquinoline Quinone Betaine Salt was placed in an oven at 60° C., and after 5 days and 10 days the sample was removed for XPRD testing (as shown in FIGS. 2 and 3) to examine the crystalline stability of the sample against temperature.
A short description of data set [5]: Solubility of saturated aqueous solution by UV absorbance at 450 nm.
In data set [6] the test system is scopolamine-induced memory disordered model mice. As to the kind of experiment: Morris water maze place navigation test in scopolamine-induced memory disordered mice. The conditions noted are these: for Latent period, the first day / Latent period, the fourth day / Latent period, the second day / Latent period, the third day: time to climb onto the platform, Mean ± SD. It is filed as in vivo, Kunming mice. The method, then:
as §1, §2

Data set [7] can be described thus: Dynamic moisture sorption (DVS) hygroscopicity. It counts as physicochemical. To be noted: warehouse environment (humidity of 45%).
Data set [8] in a line: High humidity stability of the crystalline form (XRPD). The conditions noted are these: humidity of 92.5%, 5 days and 10 days.
Excerpt: The appropriate amount of sample of the crystalline Form A of pyrroloquinoline quinone betaine salt is subjected to the humidity of 92.5%, and after 5 days and 10 days the samples were removed for XPRD testing (as shown in FIGS. 4 and 5) to examine the crystalline stability of the sample against humidity.
A short description of data set [9]: Illumination stability of the crystalline form (XRPD). The conditions noted are these: light intensity of 4500 lux, 5 and 10 days.
Excerpt: An appropriate amount of sample of the crystalline Form A of pyrroloquinoline quinone betaine salt was subjected to a light intensity of 4500 lux, and after 5 and 10 days the sample was removed for XPRD testing (as shown in FIGS. 6 and 7) to examine the crystalline stability of the sample under illumination.
[10] abbreviates: P<0.05 compared to the model group.

Results on 4 compounds are retold here after patent US11414414B2, “Pyrroloquinoline quinone glycine betaine salt” (SHANGHAI XUANCHUANG BIOLOGICAL TECHNOLOGY CO., LTD., priority 2016, dated 2022).

Consider `O=C([O-])c1cc(C(=O)[O-])c2c(n1)C(=O)C(=O)c1cc(C(=O)O)[nH]c1-2.[Na+].[Na+]` [Disodium salt of PQQ, reference compound], for which, in [1], the GSH-Px is recorded as 93.4 ± 10.1^ΔΔ kU/g pro, the MDA was 2.71 ± 0.37^Δ nmol/L, the SOD was 29.5 ± 4.9^Δ kU/g pro and the ALT is listed as 126.5 ± 27.0^ΔΔ IU/L. Also, in data set [1], the AST was 115.4 ± 22.7^Δ IU/L.
Turning to `COc1cc2c(cc1OC)C(=O)C(CC1CCN(Cc3ccccc3)CC1)C2` (centres unmarked) [Donepezil, donepezil, reference compound], in data set [2] (3 mg/kg), the “Latent period of crossing the original platform” value was 16.41 ± 7.60^ΔΔ s and the “Number of time of crossing platform” value is given as 2.90 ± 0.57^ΔΔ.
For the compound `C[N+](C)(C)CCO.C[N+](C)(C)CCO.C[N+](C)(C)CCO.O=C(O)c1cc(C(=O)O)c2c(n1)C(=O)C(=O)c1cc(C(=O)O)[nH]c1-2` [tricholine salt of PQQ], in data set [3], the “appearance after standing (hygroscopicity)” value is recorded as “became a sticky solid”.
The term Solubility denotes the concentration that dissolves in the medium under given conditions. With “pyrroloquinoline quinone betaine salt [PQQ betaine salt]”, in data set [4], the “crystalline stability against temperature” value is “stable”. Moreover, in data set [5], the “Relative ratio (solubility)” value came to 1.50. The Solubility in data set [5] (saturated aqueous solution at 30° C., solubility of pyrroloquinoline quinone) was 14.50 mM. Also, the “effect on CC14-induced acute liver injury in mice” value in data set [1] (3 mg/kg, gavage, 7 days, overall conclusion) is “significantly improved”. For the same compound, in [1], the GSH-Px is 93.5 ± 9.0^ΔΔ kU/g pro, the MDA is listed as 2.61 ± 0.37^ΔΔ nmol/L, the SOD is 31.1 ± 4.5^ΔΔ kU/g pro and the ALT was 110.1 ± 26.0^ΔΔ IU/L. Besides, the AST in data set [1] was 110.0 ± 20.4^ΔΔ IU/L. In addition, in data set [6] (1.5 mg/kg gavage once a day), the “Latent period, the first day” value is recorded as 74.30 ± 17.80 s; the “Latent period, the fourth day” value was 50.80 ± 15.95 s; the “Latent period, the second day” value amounted to 62.90 ± 14.07 s; the “Latent period, the third day” value was found to be 51.90 ± 16.43 s. Moreover, in data set [6] (3 mg/kg gavage once a day), the “Latent period, the first day” value is 74.70 ± 16.94 s; the “Latent period, the fourth day” value is 29.50 ± 12.29^ΔΔ s; the “Latent period, the second day” value is reported as 62.30 ± 13.84 s; the “Latent period, the third day” value was 38.20 ± 14.01^Δ s. For the same compound, in data set [6] (P<0.05 or P<0.01 compared with the model group), the “latent period in place navigation compared with the model group” value was “significantly shortened”. This compound also showed a moisture sorption in data set [7] of 1.1%. In [8], the “crystalline stability against humidity” value is “stable”. In addition, in data set [2] (1.5 mg/kg), the “Latent period of crossing the original platform” value is listed as 25.48 ± 12.19^ΔΔ s and the “Number of time of crossing platform” value is 2.20 ± 0.42^Δ. For the same compound, in data set [2] (3 mg/kg), the “Latent period of crossing the original platform” value is reported as 20.98 ± 9.44^ΔΔ s and the “Number of time of crossing platform” value is 2.10 ± 0.57^Δ. Also, in data set [2] (setting [10]), the “latent period in spatial search compared to the model group” value is reported as “reduced” and the “number of time of crossing platform compared to the model group” value is listed as “increased”. Further, the “crystalline stability under illumination” value in data set [9] is reported as “stable”.
